{"source": "patent US20230048349A1", "about": "“RECIRCULATING AQUACULTURE SYSTEM AND METHODS THEREOF” (THE TEXAS A&M UNIVERSITY SYSTEM, priority 2021, published 2023)", "key": {"[1]": {"tested_on": "Aeromonas hydrophila", "test": "Growth inhibition test in liquid medium (OD600)", "format": "cell-based", "conditions": "A. hydrophila", "procedure": "(§1) These compounds were used to assess the antimicrobial efficacy of PHB and chitosan under the best scenario. Various concentrations of PHB intermediates (5-125 mM), COS (0.2-3 mM), or mixtures of 3-HB+COS (i.e., Mixture 1 (4 mM 3-HB+0.1 mM COS), Mixture 2 (12 mM 3-HB+0.3 mM COS), Mixture 3 (24 mM 3-HB+0.6 mM COS), and Mixture 4 (60 mM 3-HB+1.5 mM COS)) were used based on previously in vitro antimicrobial studies using PHB or chitosan. For S. agalactiae and RHA1, tryptic soy broth (TSB) and Reasoner's 2A (R2A) media were used, respectively. The pH of all growth mediums (i.e., LB, TSB, or R2A) was adjusted to 6.0 based on the typical pH value found in aquatic animals' gut and the optimized antimicrobial activity of PHB. The culture tubes were inoculated with 2% v/v of the pre-grown strains (optical density (OD600) of 1.0) and incubated at 30° C. under 150 rpm. The bacterial growth was determined by absorbance at OD600. The growth of tested strains in the absence of PHB or chitosan intermediates were used as controls. The inhibition efficiency (%) was calculated using Eq. (1): […]\n(§2) where ODcontrol and ODsample refer to the highest optical densities of the growth curves for the controls and samples, respectively."}, "[2]": {"tested_on": "Bacillus megaterium", "test": "Growth inhibition test in liquid medium (OD600)", "format": "cell-based", "conditions": "B. megaterium; for MIC: pH 6.0, 30° C.", "procedure": "as §1, §2"}, "[3]": {"tested_on": "Escherichia coli", "test": "Growth inhibition test in liquid medium (OD600)", "format": "cell-based", "conditions": "E. coli; for MIC: pH 6.0, 30° C.", "procedure": "as §1, §2"}, "[4]": {"tested_on": "Rhodococcus jostii RHA1", "test": "Growth inhibition test in liquid medium (OD600)", "format": "cell-based", "conditions": "R. jostii RHA1; for MIC: pH 6.0, 30° C.", "procedure": "as §1, §2"}, "[5]": {"tested_on": "Streptococcus agalactiae", "test": "Growth inhibition test in liquid medium (OD600)", "format": "cell-based", "conditions": "S. agalactide; for MIC: pH 6.0, 30° C.", "procedure": "as §1, §2"}, "[6]": {"tested_on": "Vibrio campbellii", "test": "Growth inhibition test in liquid medium (OD600)", "format": "cell-based", "conditions": "V. campellii; for MIC: pH 6.0, 30° C.", "procedure": "as §1, §2"}, "[7]": {"tested_on": "V. campbellii and A. hydrophila", "test": "Growth inhibition test, ranges stated over two G− pathogens (Example 8)", "format": "cell-based, Vibrio campbellii; Aeromonas hydrophila", "conditions": "range over V. campbellii and A. hydrophila", "procedure": "as §1, §2"}, "[8]": {"tested_on": "V. campbellii and A. hydrophila", "test": "Growth inhibition test of SCFAs and MCFAs, ranges over two G− pathogens (Example 15)", "format": "cell-based, Vibrio campbellii; Aeromonas hydrophila", "conditions": "range over V. campbellii and A. hydrophila; for MIC: LB pH 6, 5-125 mM tested", "procedure": "(§3) Growth Inhibition Tests: Antipathogenic Properties of SCFAs and MCFAs. Growth inhibition tests to measure optical density (OD600) and calculate % inhibition efficiencies, minimum, and median inhibitory concentrations (MIC and IC50) were conducted as described previously. […] The PHA intermediates (SCFAs and MCFAs) are water-soluble, representing the PHA degradation products in the gastrointestinal tract of aquatic animals, allowing to assess the antipathogenic efficacy of PHA under the best scenario. The culture tubes were incubated at 30° C. under 150 rpm. The growths of tested strains in the absence of PHA intermediates were used as controls."}, "[9]": {"tested_on": "S. agalactiae", "test": "Growth inhibition test of SCFAs and MCFAs (Example 15)", "format": "cell-based, Streptococcus agalactiae", "procedure": "as §3"}, "[10]": {"tested_on": "Vibrio-challenged Artemia", "test": "Artemia pathogen challenge test (Example 17)", "format": "in vivo, Artemia franciscana", "conditions": "after three days; supplement 1 g/L; V. campbellii 10^8 cells/ml", "procedure": "The pathogen challenge tests were designed to determine the effects of individual supplements on the survival of Vibrio-challenged Artemia. The pathogen challenge tests were conducted as described in the starvation tests, except that Artemia cultures (one day old) with each of the abovementioned supplements (1 g/L) were exposed to a lethal dose (10^8 cells/ml) of live V. campbellii as determined previously. In all treatments, 250 mg/L of yeast was added initially as a feed. Unchallenged and Vibrio-challenged Artemia were used as negative and positive controls, respectively. The survival of Artemia was monitored daily for three days."}}, "note": "Marks after values point to notes of the source that are not given here."}
{"compound": "CC(O)CC(=O)O", "note": "(centres unmarked) [3-HB, 3-hydroxybutyrate]", "values": [{"measurement": "Inhibition Efficiency (%)", "setting": "[1]; 5 mM", "result": "2.7 ± 1.26", "unit": "%"}, {"measurement": "Inhibition Efficiency (%)", "setting": "[1]; 25 mM", "result": "24.1 ± 2.70", "unit": "%"}, {"measurement": "Inhibition Efficiency (%)", "setting": "[1]; 50 mM", "result": "31.1 ± 3.59", "unit": "%"}, {"measurement": "Inhibition Efficiency (%)", "setting": "[1]; 125 mM", "result": 100, "unit": "%"}, {"measurement": "IC50", "setting": "[1]; 4-parameter logistic fit", "result": 57.7, "unit": "mM"}, {"measurement": "MIC", "setting": "[1]; pH 6.0, 30° C.", "result": 133, "unit": "mM"}, {"measurement": "Inhibition Efficiency (%)", "setting": "[2]; 5 mM", "result": "6.52 ± 3.48", "unit": "%"}, {"measurement": "Inhibition Efficiency (%)", "setting": "[2]; 25 mM", "result": "−1.35 ± 1.04", "unit": "%"}, {"measurement": "Inhibition Efficiency (%)", "setting": "[2]; 50 mM", "result": "12.9 ± 0.94", "unit": "%"}, {"measurement": "Inhibition Efficiency (%)", "setting": "[2]; 125 mM", "result": "17.0 ± 14.4", "unit": "%"}, {"measurement": "IC50", "setting": "[2]; 4-parameter logistic fit", "result": "N.I."}, {"measurement": "MIC", "setting": "[2]", "result": "N.I."}, {"measurement": "Inhibition Efficiency (%)", "setting": "[3]; 5 mM", "result": "2.68 ± 0.67", "unit": "%"}, {"measurement": "Inhibition Efficiency (%)", "setting": "[3]; 25 mM", "result": "9.15 ± 3.12", "unit": "%"}, {"measurement": "Inhibition Efficiency (%)", "setting": "[3]; 50 mM", "result": "24.5 ± 2.23", "unit": "%"}, {"measurement": "Inhibition Efficiency (%)", "setting": "[3]; 125 mM", "result": "26.5 ± 1.34", "unit": "%"}, {"measurement": "MIC", "setting": "[3]", "result": 510, "unit": "mM"}, {"measurement": "Inhibition Efficiency (%)", "setting": "[4]; 5 mM", "result": "−32.3 ± 2.20", "unit": "%"}, {"measurement": "Inhibition Efficiency (%)", "setting": "[4]; 25 mM", "result": "−87.3 ± 4.00", "unit": "%"}, {"measurement": "Inhibition Efficiency (%)", "setting": "[4]; 50 mM", "result": "−61.7 ± 0.58", "unit": "%"}, {"measurement": "Inhibition Efficiency (%)", "setting": "[4]; 125 mM", "result": 100, "unit": "%"}, {"measurement": "IC50", "setting": "[4]; 4-parameter logistic fit", "result": "N.I."}, {"measurement": "MIC", "setting": "[4]", "result": "N.I."}, {"measurement": "Inhibition Efficiency (%)", "setting": "[5]; 5 mM", "result": "0.75 ± 0.01", "unit": "%"}, {"measurement": "Inhibition Efficiency (%)", "setting": "[5]; 25 mM", "result": "0.75 ± 0.03", "unit": "%"}, {"measurement": "Inhibition Efficiency (%)", "setting": "[5]; 50 mM", "result": "0.75 ± 0.01", "unit": "%"}, {"measurement": "Inhibition Efficiency (%)", "setting": "[5]; 125 mM", "result": "13.8 ± 0.15", "unit": "%"}, {"measurement": "MIC", "setting": "[5]", "result": 945, "unit": "mM"}, {"measurement": "Inhibition Efficiency (%)", "setting": "[6]; 5 mM", "result": "1.27 ± 1.07", "unit": "%"}, {"measurement": "Inhibition Efficiency (%)", "setting": "[6]; 25 mM", "result": "14.0 ± 1.78", "unit": "%"}, {"measurement": "Inhibition Efficiency (%)", "setting": "[6]; 50 mM", "result": "42.4 ± 5.88", "unit": "%"}, {"measurement": "Inhibition Efficiency (%)", "setting": "[6]; 125 mM", "result": 100, "unit": "%"}, {"measurement": "IC50", "setting": "[6]; 4-parameter logistic fit, read-out: IC50", "result": 53, "unit": "mM"}, {"measurement": "MIC", "setting": "[6]", "result": 111.5, "unit": "mM"}, {"measurement": "IC50", "setting": "[7]", "result": "53 to 58", "unit": "mM"}, {"measurement": "MIC", "setting": "[7]", "result": "111.5 to 133", "unit": "mM"}]}
{"compound": "CCCCCCCC(=O)O", "note": "[octanoate]", "values": [{"measurement": "MIC", "setting": "[8]", "result": "< 5", "unit": "mM"}, {"measurement": "MIC", "setting": "[9]; stated for all pathogenic growth, incl. S. agalactiae", "result": "< 5", "unit": "mM"}, {"measurement": "survival of Vibrio-challenged Artemia", "setting": "[10]", "result": 80, "unit": "%"}]}
{"compound": "CCCCC(=O)O", "note": "[valerate]", "values": [{"measurement": "IC50", "setting": "[8]; LB pH 6", "result": "0.84 to 11.1", "unit": "mM"}, {"measurement": "MIC", "setting": "[8]", "result": "62.4 to 77.9", "unit": "mM"}, {"measurement": "IC50", "setting": "[9]; S. agalactiae", "result": 30.2, "unit": "mM"}, {"measurement": "survival of Vibrio-challenged Artemia", "setting": "[10]", "result": 10, "unit": "%"}]}
{"compound": "chitosan oligosaccharide lactate [COS]", "values": [{"measurement": "Inhibition Efficiency (%)", "setting": "[1]; 0.2 mM", "result": "4.81 ± 0.11", "unit": "%"}, {"measurement": "Inhibition Efficiency (%)", "setting": "[1]; 0.6 mM", "result": "−7.30 ± 0.40", "unit": "%"}, {"measurement": "Inhibition Efficiency (%)", "setting": "[1]; 1.2 mM", "result": "77.6 ± 0.28", "unit": "%"}, {"measurement": "Inhibition Efficiency (%)", "setting": "[1]; 3 mM", "result": "74.2 ± 0.61", "unit": "%"}, {"measurement": "Inhibition Efficiency (%)", "setting": "[2]; 0.2 mM", "result": 100, "unit": "%"}, {"measurement": "Inhibition Efficiency (%)", "setting": "[2]; 0.6 mM", "result": 100, "unit": "%"}, {"measurement": "Inhibition Efficiency (%)", "setting": "[2]; 1.2 mM", "result": 100, "unit": "%"}, {"measurement": "Inhibition Efficiency (%)", "setting": "[2]; 3 mM", "result": 100, "unit": "%"}, {"measurement": "MIC", "setting": "[2]", "result": "<0.2^c mM"}, {"measurement": "Inhibition Efficiency (%)", "setting": "[3]; 0.2 mM", "result": "60.6 ± 4.56", "unit": "%"}, {"measurement": "Inhibition Efficiency (%)", "setting": "[3]; 0.6 mM", "result": "90.6 ± 0.91", "unit": "%"}, {"measurement": "Inhibition Efficiency (%)", "setting": "[3]; 1.2 mM", "result": 100, "unit": "%"}, {"measurement": "Inhibition Efficiency (%)", "setting": "[3]; 3 mM", "result": 100, "unit": "%"}, {"measurement": "MIC", "setting": "[3]", "result": 1.88, "unit": "mM"}, {"measurement": "Inhibition Efficiency (%)", "setting": "[4]; 0.2 mM", "result": 100, "unit": "%"}, {"measurement": "Inhibition Efficiency (%)", "setting": "[4]; 0.6 mM", "result": 100, "unit": "%"}, {"measurement": "Inhibition Efficiency (%)", "setting": "[4]; 1.2 mM", "result": 100, "unit": "%"}, {"measurement": "Inhibition Efficiency (%)", "setting": "[4]; 3 mM", "result": 100, "unit": "%"}, {"measurement": "MIC", "setting": "[4]", "result": "<0.2", "unit": "mM"}, {"measurement": "Inhibition Efficiency (%)", "setting": "[5]; 0.6 mM", "result": "95.4 ± 0.01", "unit": "%"}, {"measurement": "Inhibition Efficiency (%)", "setting": "[5]; 1.2 mM", "result": 100, "unit": "%"}, {"measurement": "Inhibition Efficiency (%)", "setting": "[5]; 3 mM", "result": 100, "unit": "%"}, {"measurement": "MIC", "setting": "[5]", "result": 1.08, "unit": "mM"}, {"measurement": "Inhibition Efficiency (%)", "setting": "[6]; 0.2 mM", "result": "76.5 ± 1.13", "unit": "%"}, {"measurement": "Inhibition Efficiency (%)", "setting": "[6]; 0.6 mM", "result": "93.0 ± 1.10", "unit": "%"}, {"measurement": "Inhibition Efficiency (%)", "setting": "[6]; 1.2 mM", "result": "95.0 ± 0.23", "unit": "%"}, {"measurement": "Inhibition Efficiency (%)", "setting": "[6]; 3 mM", "result": 100, "unit": "%"}, {"measurement": "MIC", "setting": "[6]", "result": 2.36, "unit": "mM"}]}
